Measured values reported in ChEMBL document CHEMBL4619763 (J Nat Prod, 2020).
Activity calls are given as the source filed them. The rule behind the calls is not given here.

Columns and labels:
Rattus norvegicus [1] = test: Diuretic activity in normotensive Wistar rat assessed as urinary sodium excretion at 10 mg/kg, po administered via gavage after 8 hrs (reference value: 61.82 to 80.81 mmol/L); format: functional
Rattus norvegicus [2] = test: Diuretic activity in spontaneous hypertensive Wistar rat assessed as increase in urinary potassium excretion at 10 mg/kg, po administered via gavage for 7 days; format: ADME, organism-based; conditions: in vivo, 168 h
Rattus norvegicus [3] = test: Diuretic activity in spontaneous hypertensive Wistar rat assessed as increase in urine volume at 10 mg/kg, po administered via gavage for 7 days; format: functional, organism-based
Rattus norvegicus [4] = test: Anti-urolithic activity in spontaneous hypertensive Wistar rats assessed as reduction in CaOx crystal formation in cumulative urine at 10 mg/kg, po administered via gavage in presence of sodium oxalate by Neubauer counting chamber method relative to control; format: functional; set-up: scale not given: the % may be the effect or the level left
Rattus norvegicus [5] = test: Renal protective activity in spontaneous hypertensive Wistar rat assessed as reduction in hypertension-induced Bowman's capsule thickening at 10 mg/kg, po administered via gavage for 7 days by hematoxylin and eosin staining based microscopic analysis; format: functional, organism-based
Rattus norvegicus [6] = test: Diuretic activity in normotensive Wistar rat assessed as increase in urinary chloride excretion at 10 mg/kg, po administered via gavage for 7 days; format: functional, organism-based
Rattus norvegicus [7] = test: Diuretic activity in spontaneous hypertensive Wistar rat assessed as decrease in urinary calcium excretion at 10 mg/kg, po administered via gavage for 7 days; format: functional, organism-based
Rattus norvegicus [8] = test: Diuretic activity in normotensive Wistar rat assessed as urinary chloride excretion at 10 mg/kg, po administered via gavage after 8 hrs (reference value: 135.10 to 143.70 mmol/L); format: functional
Rattus norvegicus [9] = test: In vivo antioxidant activity in Wistar rat model of hypertension-induced oxidative stress assessed as reduction in reactive oxygen species generation in renal tissue at 10 mg/kg, po administered via gavage for 7 days by DCFH-DA probe based fluorimetric assay; format: functional, organism-based
Rattus norvegicus [10] = test: Renal protective activity in spontaneous hypertensive Wistar rat assessed as reduction in hypertension-induced mesangial space disarrangement at 10 mg/kg, po administered via gavage for 7 days by hematoxylin and eosin staining based microscopic analysis; format: functional, organism-based
Rattus norvegicus [11] = test: Diuretic activity in normotensive Wistar rat assessed as decrease in urinary calcium excretion at 10 mg/kg, po administered via gavage for 7 days; format: functional, organism-based
Rattus norvegicus [12] = test: Renal protective activity in spontaneous hypertensive Wistar rat assessed as reduction in hypertension-induced glomerular size at 10 mg/kg, po administered via gavage for 7 days by hematoxylin and eosin staining based microscopic analysis; format: functional, organism-based
Rattus norvegicus [13] = test: Diuretic activity in normotensive Wistar rat assessed as urine conductivity at 10 mg/kg, po administered via gavage after 8 hrs (reference value: 19.54 +/- 0.98 mS/cm); format: functional
Rattus norvegicus [14] = test: Diuretic activity in normotensive Wistar rat assessed as increase in urinary potassium excretion at 10 mg/kg, po administered via gavage for 7 days; format: ADME, organism-based; conditions: in vivo, 168 h
Rattus norvegicus [15] = test: In vivo antioxidant activity in Wistar rat model of hypertension-induced oxidative stress assessed as reduction in nitrite level in renal tissue at 10 mg/kg, po administered via gavage for 7 days by Griess reagent based assay; format: functional, organism-based
Rattus norvegicus [16] = test: Anti-urolithic activity in normotensive Wistar rats assessed as reduction in CaOx crystal formation in cumulative urine at 10 mg/kg, po administered via gavage in presence of sodium oxalate by Neubauer counting chamber method relative to control; format: functional; set-up: scale not given: the % may be the effect or the level left
Rattus norvegicus [17] = test: Diuretic activity in normotensive Wistar rat assessed as urinary calcium excretion at 10 mg/kg, po administered via gavage after 8 hrs (reference value: 5.93 to 6.87 mg/dl); format: functional
Rattus norvegicus [18] = test: Diuretic activity in spontaneous hypertensive Wistar rat assessed as increase in urinary sodium excretion at 10 mg/kg, po administered via gavage for 7 days; format: functional, organism-based
Rattus norvegicus [19] = test: Diuretic activity in normotensive Wistar rat assessed as urinary potassium excretion at 10 mg/kg, po administered via gavage after 8 hrs (reference value: 22.39 to 24.21 mmol/L); format: ADME, organism-based; conditions: in vivo
Rattus norvegicus [20] = test: Diuretic activity in normotensive Wistar rat assessed as increase in urine volume at 10 mg/kg, po administered via gavage for 7 days; format: functional, organism-based
Rattus norvegicus [21] = test: Diuretic activity in spontaneous hypertensive Wistar rat assessed as increase in urinary chloride excretion at 10 mg/kg, po administered via gavage for 7 days; format: functional, organism-based
Rattus norvegicus [22] = test: Diuretic activity in normotensive Wistar rat assessed as increase in urinary sodium excretion at 10 mg/kg, po administered via gavage for 7 days; format: functional, organism-based
Rattus norvegicus [23] = test: Diuretic activity in normotensive Wistar rat assessed as urine pH at 20 mg/kg, po administered via gavage after 8 hrs (reference value: 6.14 to 6.21); format: functional
[24] = Anti-urolithic activity in synthetic urine assessed as decrease in absorbance at 10 mg/mL after 30 mins relative to control; format: functional; set-up: scale not given: the % may be the effect or the level left
[25] = Anti-urolithic activity in synthetic urine assessed as reduction in CaOx crystal formation at 10 mg/mL in presence of sodium oxalate after 60 mins by Neubauer counting chamber method relative to control; format: functional; set-up: scale not given: the % may be the effect or the level left
[26] = Anti-urolithic activity in synthetic urine assessed as decrease in absorbance at 10 mg/mL after 60 mins relative to control; format: functional; set-up: scale not given: the % may be the effect or the level left
[27] = Anti-urolithic activity in synthetic urine assessed as decrease in absorbance at 10 mg/mL relative to control; format: functional; set-up: scale not given: the % may be the effect or the level left
Rattus norvegicus [28] = test: Diuretic activity in normotensive Wistar rat assessed as urinary sodium excretion at 3 mg/kg, po administered via gavage after 8 hrs (reference value: 61.82 to 80.81 mmol/L); format: functional
Rattus norvegicus [29] = test: Diuretic activity in normotensive Wistar rat assessed as urinary chloride excretion at 3 mg/kg, po administered via gavage after 8 hrs (reference value: 135.10 to 143.70 mmol/L); format: functional
Rattus norvegicus [30] = test: Diuretic activity in normotensive Wistar rat assessed as urinary calcium excretion at 3 mg/kg, po administered via gavage after 8 hrs (reference value: 5.93 to 6.87 mg/dl); format: functional
Rattus norvegicus [31] = test: Diuretic activity in normotensive Wistar rat assessed as urine conductivity at 3 mg/kg, po administered via gavage after 8 hrs (reference value: 19.54 +/- 0.98 mS/cm); format: functional
Rattus norvegicus [32] = test: Diuretic activity in normotensive Wistar rat assessed as urine pH at 3 mg/kg, po administered via gavage after 8 hrs (reference value: 6.14 to 6.21); format: functional
Rattus norvegicus [33] = test: Diuretic activity in normotensive Wistar rat assessed as modification of urinary potassium excretion at 0.1 to 1 mg/kg, po administered via gavage measured up to 8 hrs; format: ADME, organism-based; conditions: in vivo
Rattus norvegicus [34] = test: Diuretic activity in normotensive Wistar rat assessed as increase in urine volume excretion at 0.1 to 1 mg/kg, po administered via gavage measured up to 8 hrs; format: functional, organism-based
Rattus norvegicus [35] = test: Diuretic activity in normotensive Wistar rat assessed as modification of urinary sodium excretion at 0.1 to 1 mg/kg, po administered via gavage measured up to 8 hrs; format: functional, organism-based
Rattus norvegicus [36] = test: Diuretic activity in normotensive Wistar rat assessed as modification of urinary chloride excretion at 0.1 to 1 mg/kg, po administered via gavage measured up to 8 hrs; format: functional, organism-based
Rattus norvegicus [37] = test: Diuretic activity in normotensive Wistar rat assessed as increase in urine volume excretion at 0.1 to 1 mg/kg, ip measured up to 8 hrs; format: functional, organism-based
Rattus norvegicus [38] = test: Diuretic activity in normotensive Wistar rat assessed as modification of urinary calcium excretion at 0.1 to 1 mg/kg, po administered via gavage measured up to 8 hrs; format: functional, organism-based

**Q.** With `NS(=O)(=O)c1cc2c(cc1Cl)NCNS2(=O)=O` [HYDROCHLOROTHIAZIDE] as the compound, how does the Activity (Rattus norvegicus [1]) read?
**A.** The Activity was 175.7 to 185.7 mmol/L.

**Q.** And the Activity (Rattus norvegicus [2])?
**A.** Its Activity is “Toxic”.

**Q.** What about the Activity (Rattus norvegicus [3]) of the same compound?
**A.** The Activity was “Active”.

**Q.** What about the Activity (Rattus norvegicus [4]) of the same compound?
**A.** Its Activity is 92.9%.

**Q.** What about the Activity (Rattus norvegicus [5]) of the same compound?
**A.** The Activity was “Active”.

**Q.** What about the Activity (Rattus norvegicus [6]) of the same compound?
**A.** Its Activity is “Active”.

**Q.** And the Activity (Rattus norvegicus [7])?
**A.** The Activity was “Active”.

**Q.** And the Activity (Rattus norvegicus [8])?
**A.** The Activity was 279.8 to 286.6 mmol/L.

**Q.** What about the Activity (Rattus norvegicus [9]) of the same compound?
**A.** Its Activity is “Active”.

**Q.** And the Activity (Rattus norvegicus [10])?
**A.** The Activity was “Active”.

**Q.** And the Activity (Rattus norvegicus [11])?
**A.** Its Activity is “Active”.

**Q.** What about the Activity (Rattus norvegicus [12]) of the same compound?
**A.** The Activity was “Active”.

**Q.** And the Activity (Rattus norvegicus [13])?
**A.** Its Activity is 23.62 - 27.3 mS/cm.

**Q.** And the Activity (Rattus norvegicus [14])?
**A.** The Activity was “Toxic”.

**Q.** What about the Activity (Rattus norvegicus [15]) of the same compound?
**A.** Its Activity is “Active”.

**Q.** What about the Activity (Rattus norvegicus [16]) of the same compound?
**A.** Its Activity is 89.04%.

**Q.** And the Activity (Rattus norvegicus [17])?
**A.** The Activity was 4.78 to 5.24 mg/dL.

**Q.** And the Activity (Rattus norvegicus [18])?
**A.** The Activity was “Active”.

**Q.** What about the Activity (Rattus norvegicus [19]) of the same compound?
**A.** The Activity was 41 to 44.8 mmol/L.

**Q.** And the Activity (Rattus norvegicus [20])?
**A.** Its Activity is “Active”.

**Q.** And the Activity (Rattus norvegicus [21])?
**A.** The Activity was “Active”.

**Q.** What about the Activity (Rattus norvegicus [22]) of the same compound?
**A.** The Activity was “Active”.

**Q.** For `NS(=O)(=O)c1cc(C(=O)O)c(NCc2ccco2)cc1Cl` [FUROSEMIDE], which pH (Rattus norvegicus [23]) is on record?
**A.** Its pH is 6.12.

**Q.** Which results are given for `O=C([O-])CC(O)(CC(=O)[O-])C(=O)[O-].[K+].[K+].[K+]` [POTASSIUM CITRATE ANHYDROUS]?
**A.** Activity [24]: 70.41%; Activity [25]: 65.02%; Activity [26]: 64.85%; Activity [27]: 81.73%

**Q.** Which results are given for `N=C(N)NC(=O)c1nc(Cl)c(N)nc1N` [AMILORIDE]?
**A.** Activity (Rattus norvegicus [28]): 117.2 mmol/L; Activity (Rattus norvegicus [29]): 170.5 mmol/L; Activity (Rattus norvegicus [30]): 5.7 mg/dL; Activity (Rattus norvegicus [31]): 18.23 mS/cm; pH (Rattus norvegicus [32]): 6.29

**Q.** Which Activity (Rattus norvegicus [33]) does the source give for `O=c1c(O)c(-c2ccc(O)cc2)oc2cc(O)cc(O)c12` [KAEMPFEROL] here?
**A.** The Activity was “Non-Toxic”.

**Q.** What about the Activity (Rattus norvegicus [34]) of the same compound?
**A.** Its Activity is “inactive”.

**Q.** And the Activity (Rattus norvegicus [35])?
**A.** The Activity was “inactive”.

**Q.** What about the Activity (Rattus norvegicus [36]) of the same compound?
**A.** The Activity was “inactive”.

**Q.** What about the Activity (Rattus norvegicus [37]) of the same compound?
**A.** The Activity was “inactive”.

**Q.** And the Activity (Rattus norvegicus [38])?
**A.** The Activity was “inactive”.
